The values below come from PubChem BioAssay AID230 (DTP/NCI, 2004).

The structures appear in SMILES notation. Values joined by “and” are separate entries in the source; they are usually repeats but may differ in a detail not shown here. Equal entries are not always repeated. Inconclusive results and toxic doses are left out.

This experiment has as its system C3H/He mice, Gardner lymphosarcoma 6C3HED ip, survival T/C. In words: NCI In Vivo Anticancer Drug Screen. Data for tumor model Lymphosarcoma Gardner 6C3HED (intraperitoneal) in C3H/He mice. The note with it: higher = longer survival. How it is done:
The antitumor activity of compounds was measured in mice bearing transplantable tumors. Survival or tumor size were measured and the results are expressed as the measurement made in the treated group (T) divided by the measurement made in the vehicle treated control group (C). The tumor model used in this assay is Lymphosarcoma Gardner 6C3HED (intraperitoneal) in C3H/He mice

Setting [1] is: endpoint: survival time, mean or median, dose: 0.13 mg/kg/injection, schedule: Q01DX010 (ip), vehicle: saline.
[2] abbreviates: endpoint: survival time, mean or median, dose: 0.25 mg/kg/injection, schedule: Q01DX010 (ip), vehicle: saline.
Where [3] appears, read: endpoint: survival time, mean or median, dose: 0.5 mg/kg/injection, schedule: Q01DX010 (ip), vehicle: saline.
[4] abbreviates: endpoint: survival time, mean or median, dose: 1.0 mg/kg/injection, schedule: Q01DX010 (ip), vehicle: saline.
Setting [5] is: endpoint: survival time, mean or median, dose: 2.0 mg/kg/injection, schedule: Q01DX010 (ip), vehicle: saline.
Where [6] appears, read: endpoint: survival time, mean or median, dose: 125.0 mg/kg/injection, schedule: Q01DX010 (ip), vehicle: saline.
[7] abbreviates: endpoint: survival time, mean or median, dose: 250.0 mg/kg/injection, schedule: Q01DX010 (ip), vehicle: saline.
[8] abbreviates: endpoint: survival time, mean or median, dose: 10.0 mg/kg/injection, schedule: Q01DX010 (ip), vehicle: saline.
[9] abbreviates: endpoint: survival time, mean or median, dose: 20.0 mg/kg/injection, schedule: Q01DX010 (ip), vehicle: saline.
Setting [10] is: endpoint: survival time, mean or median, dose: 40.0 mg/kg/injection, schedule: Q01DX010 (ip), vehicle: saline.
Where [11] appears, read: endpoint: survival time, mean or median, dose: 4.0 mg/kg/injection, schedule: Q01DX010 (ip), vehicle: saline.
Where [12] appears, read: endpoint: survival time, mean or median, dose: 125.0 micrograms/kg/injection, schedule: Q01DX010 (ip), vehicle: saline.
The mark [13] stands for this setting: endpoint: survival time, mean or median, dose: 250.0 micrograms/kg/injection, schedule: Q01DX010 (ip), vehicle: saline.
Where [14] appears, read: endpoint: survival time, mean or median, dose: 25.0 mg/kg/injection, schedule: Q01DX010 (ip), vehicle: saline.
[15] abbreviates: endpoint: survival time, mean or median, dose: 50.0 mg/kg/injection, schedule: Q01DX010 (ip), vehicle: saline.
Where [16] appears, read: endpoint: survival time, mean or median, dose: 100.0 mg/kg/injection, schedule: Q01DX010 (ip), vehicle: saline.
Where [17] appears, read: endpoint: survival time, mean or median, dose: 200.0 mg/kg/injection, schedule: Q01DX010 (ip), vehicle: saline.
[18] abbreviates: endpoint: survival time, mean or median, dose: 5.0 mg/kg/injection, schedule: Q01DX010 (ip), vehicle: saline.

Regarding `COc1cccc2c1C(=O)c1c(O)c3c(c(O)c1C2=O)C[C@@](O)(C(C)=O)C[C@@H]3OC1CC(N)C(O)C(C)O1` (stereo partly specified), the T/C was 92 % of control under setting [1]; 111 % of control under setting [2]; 119 % of control under setting [3]; 300 % of control under setting [4]; 173 % of control under setting [5].

For the compound `Nc1ncccc1C(=O)O`, the T/C is 100 % of control (endpoint: survival time, mean or median, dose: 62.5 mg/kg/injection, schedule: Q01DX010 (ip), vehicle: saline); 100 % of control under setting [6]; 107 % of control under setting [7]; 96 % of control (endpoint: survival time, mean or median, dose: 500.0 mg/kg/injection, schedule: Q01DX010 (ip), vehicle: saline).

`CN(Cc1cnc2nc(N)nc(N)c2n1)c1c(Cl)cc(C(=O)NC(CCC(=O)O)C(=O)O)cc1Cl` (stereo unspecified): the T/C under setting [8] was 300 % of control; the T/C under setting [9] was 300 % of control; the T/C under setting [10] was 300 % of control; the T/C (endpoint: survival time, mean or median, dose: 80.0 mg/kg/injection, schedule: Q01DX010 (ip), vehicle: saline) is 300 % of control.

As to `Nc1nc(N)c2nc(CNc3ccc(C(=O)NC(CCC(=O)O)C(=O)O)cc3)cnc2n1` (stereo unspecified), the T/C was 95 % of control and 100 % of control (endpoint: survival time, mean or median, dose: 0.03 mg/kg/injection, schedule: Q01DX010 (ip), vehicle: other); 100 % of control and 110 % of control (endpoint: survival time, mean or median, dose: 0.05 mg/kg/injection, schedule: Q01DX010 (ip), vehicle: other); 100 % of control and 110 % of control (endpoint: survival time, mean or median, dose: 0.1 mg/kg/injection, schedule: Q01DX010 (ip), vehicle: other).

Take `CCCCNc1ncnc2c1cnn2C`: the T/C runs as follows: under setting [11], 90 % of control and 100 % of control; (endpoint: survival time, mean or median, dose: 8.0 mg/kg/injection, schedule: Q01DX010 (ip), vehicle: saline) 95 % of control and 100 % of control; (endpoint: survival time, mean or median, dose: 16.0 mg/kg/injection, schedule: Q01DX010 (ip), vehicle: saline) 90 % of control and 100 % of control; (endpoint: survival time, mean or median, dose: 32.0 mg/kg/injection, schedule: Q01DX010 (ip), vehicle: saline) 90 % of control and 100 % of control.

As for `CCC(=O)O[C@H]1CC[C@H]2[C@@H]3CCC4=CC(=O)CC[C@]4(C)[C@H]3CC[C@]12C`, the T/C runs as follows: (endpoint: survival time, mean or median, dose: 62.5 mg/kg/injection, schedule: Q01DX010 (sc), vehicle: steriod suspending solution) 90 % of control; (endpoint: survival time, mean or median, dose: 125.0 mg/kg/injection, schedule: Q01DX010 (sc), vehicle: steriod suspending solution) 90 % of control; (endpoint: survival time, mean or median, dose: 250.0 mg/kg/injection, schedule: Q01DX010 (sc), vehicle: steriod suspending solution) 96 % of control; (endpoint: survival time, mean or median, dose: 500.0 mg/kg/injection, schedule: Q01DX010 (sc), vehicle: steriod suspending solution) 100 % of control.

On to `CS(=O)(=O)OCCN(CCOS(C)(=O)=O)c1ccc(N=O)cc1`, for which the T/C is 107 % of control (endpoint: survival time, mean or median, dose: 62.5 micrograms/kg/injection, schedule: Q01DX010 (ip), vehicle: saline); 111 % of control under setting [12]; 111 % of control under setting [13]; 92 % of control (endpoint: survival time, mean or median, dose: 500.0 micrograms/kg/injection, schedule: Q01DX010 (ip), vehicle: saline).

`CO[C@H](C(=O)[C@@H](O)[C@@H](C)O)[C@@H]1Cc2cc3cc(OC4CC(OC5CC(O)C(O)C(C)O5)C(O)C(C)O4)c(C)c(O)c3c(O)c2C(=O)[C@H]1OC1CC(OC2CC(OC3CC(C)(O)C(O)C(C)O3)C(O)C(C)O2)C(O)C(C)O1` (stereo partly specified): the T/C under setting [1] was 111 % of control, the T/C under setting [2] was 123 % of control, the T/C under setting [4] was 300 % of control and the T/C under setting [5] was 188 % of control.

In the case of `CC(=O)NC1=C(N2CC2)C(=O)C(NC(C)=O)=C(N2CC2)C1=O`, the T/C under setting [1] is 117 % of control; the T/C under setting [2] was 92 % of control; the T/C under setting [3] is 103 % of control; the T/C (endpoint: survival time, mean or median, dose: 63.0 micrograms/kg/injection, schedule: Q01DX010 (ip), vehicle: saline) was 170 % of control; the T/C under setting [12] is 204 % of control; the T/C under setting [13] was 114 % of control.

Take `CN(C)CC(=O)c1ccc(O)c(O)c1`: the T/C runs as follows: (endpoint: survival time, mean or median, dose: 300.0 mg/kg/injection, schedule: Q01DX010 (ip), vehicle: saline) 180 % of control; (endpoint: survival time, mean or median, dose: 675.0 mg/kg/injection, schedule: Q01DX010 (ip), vehicle: saline) 106 % of control.

With `Nc1ncnc2c1ncn2C1OC(COC=O)C(O)C1O` (stereo unspecified), the T/C is 90 % of control (endpoint: median survival time, dose: 13.8 mg/kg/injection, schedule: Q01DX003 (ip), vehicle: saline); 104 % of control (endpoint: median survival time, dose: 13.8 mg/kg/injection, schedule: Q12HX006 (ip), vehicle: saline); 104 % of control (endpoint: median survival time, dose: 27.6 mg/kg/injection, schedule: Q01DX003 (ip), vehicle: saline); 104 % of control (endpoint: median survival time, dose: 27.6 mg/kg/injection, schedule: Q12HX006 (ip), vehicle: saline); 104 % of control (endpoint: median survival time, dose: 55.2 mg/kg/injection, schedule: Q01DX003 (ip), vehicle: saline); 120 % of control (endpoint: median survival time, dose: 55.2 mg/kg/injection, schedule: Q12HX006 (ip), vehicle: saline).

Consider `NC(=O)n1cccn1`, for which the T/C under setting [14] was 89 % of control, the T/C under setting [15] is 96 % of control, the T/C under setting [16] was 96 % of control and the T/C under setting [17] was 100 % of control.

As to `O=c1[nH]c(=O)n(C2CC(O)C(CO)O2)cc1F` (stereo unspecified), the T/C runs as follows: under setting [18], 115 % of control and 303 % of control; under setting [8], 100 % of control and 115 % of control; under setting [9], 107 % of control and 229 % of control; under setting [10], 115 % of control and 212 % of control.

Regarding `CCCSc1ncnc2nc[nH]c12`, the T/C is, setting by setting: under setting [6], 95 % of control; under setting [7], 95 % of control.

Turning to `CSc1ncnc2nc[nH]c12`, the T/C was 100 % of control under setting [14]; 93 % of control and 100 % of control under setting [15]; 93 % of control and 100 % of control under setting [16]; 93 % of control and 103 % of control under setting [17].

With `C[N+](C)(C)c1ncnc2nc[nH]c12`, the T/C runs as follows: (endpoint: survival time, mean or median, dose: 15.0 mg/kg/injection, schedule: Q01DX010 (ip), vehicle: saline) 92 % of control; (endpoint: survival time, mean or median, dose: 30.0 mg/kg/injection, schedule: Q01DX010 (ip), vehicle: saline) 96 % of control.

With `Nc1c(Br)cc2c(c1Br)Cc1cc([N+](=O)[O-])ccc1-2`, the T/C (endpoint: survival time, mean or median, dose: 7.8 mg/kg/injection, schedule: Q01DX010 (ip), vehicle: saline) was 92 % of control.

For the compound `NC(=O)N(CCCl)N=O`, the T/C is 204 % of control under setting [3], 228 % of control under setting [4], 161 % of control under setting [5] and 100 % of control under setting [11].

Turning to `CCOC(=O)NP(=O)(N1CC1)N1CC1`, the T/C runs as follows: (endpoint: survival time, mean or median, dose: 2.5 mg/kg/injection, schedule: Q01DX010 (ip), vehicle: saline) 100 % of control and 107 % of control; under setting [18], 107 % of control and 117 % of control; under setting [8], 157 % of control; under setting [9], 92 % of control and 103 % of control.
